Laboratory results reported in patent US10457709B2, “Antimicrobial peptides, their variants and uses” (priority 2015, dated 2019).
Read-outs that look alike come from different tables or passages of the source. Square brackets hold non-standard residues; d marks the D form. Peptide text beside a SMILES is read from it.

Tests used:
[1] = system: C. quillermondiae clinical strains; test: MIC, clinical yeast strains; type: cell-based, Candida quillermondiae; parameters: unit: μg/ml; settings: C. quillermondiae clinical yeast strain 1
Summary of the method: (§1)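 Broth microdilution in Mueller Hinton broth, inoculum adjusted to 5.0×10^5 cfu/ml, peptides tested at 0.125 to 128 μg/ml, 37° C for 20 to 24 hours. Yeast assays were run in potato dextrose broth. MIC was taken as the lowest concentration with no visible growth.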

[2] = system: Candida albicans clinical strains; test: MIC, clinical yeast strains; type: cell-based; parameters: unit: μg/ml
Summary of the method: as §1

[3] = system: C. parapsilosis clinical strains; test: MIC, clinical yeast strains; type: cell-based, Candida parapsilosis; parameters: unit: µg/ml
Summary of the method: as §1

[4] = system: C. glabrata clinical strains; test: MIC, clinical yeast strains; type: cell-based, Candida glabrata; parameters: unit: µg/ml
Summary of the method: as §1

[5] = system: Escherichia coli clinical strains; type: cell-based; settings: microdilution, Muller Hinton broth-cation adjusted, 0.02% BSA, 0.2% acetic acid
Summary of the method: as §1

[6] = system: all the bacteria and yeasts tested; type: cell-based
Summary of the method: as §1

[7] = system: Klebsiella pneumoniae clinical strains; type: cell-based; settings: microdilution, Muller Hinton broth-cation adjusted, 0.02% BSA, 0.2% acetic acid
Summary of the method: as §1

[8] = system: Pseudomonas aeruginosa clinical strains; type: cell-based; settings: microdilution, Muller Hinton broth-cation adjusted, 0.02% BSA, 0.2% acetic acid
Summary of the method: as §1

[9] = system: Acinetobacter johnsonii clinical strains; type: cell-based; settings: Acinetobacter johnsonii clinical strain 1; microdilution, Muller Hinton broth-cation adjusted, 0.02% BSA, 0.2% acetic acid
Summary of the method: as §1

[10] = system: Acinetobacter baumannii clinical strains; type: cell-based; parameters: Minimum inhibitory concentration: unit: μg/ml; settings: microdilution, Muller Hinton broth-cation adjusted, 0.02% BSA, 0.2% acetic acid
Summary of the method: as §1

[11] = system: Staphylococcus aureus clinical strains; type: cell-based; parameters: Minimum inhibitory concentration: unit: μg/ml; settings: microdilution, Muller Hinton broth-cation adjusted, 0.02% BSA, 0.2% acetic acid
Summary of the method: as §1

[12] = system: Enterobacter cloacae clinical strains; type: cell-based; parameters: Minimum inhibitory concentration: unit: μg/ml; settings: microdilution, Muller Hinton broth-cation adjusted, 0.02% BSA, 0.2% acetic acid
Summary of the method: as §1

[13] = system: Streptococcus pneumoniae clinical strains; type: cell-based; parameters: Minimum inhibitory concentration: unit: μg/ml; settings: microdilution, Muller Hinton broth-cation adjusted, 0.02% BSA, 0.2% acetic acid
Summary of the method: as §1

[14] = system: Serratia marcescens clinical strains; type: cell-based; parameters: Minimum inhibitory concentration: unit: μg/ml; settings: for Minimum inhibitory concentration: microdilution, Muller Hinton broth-cation adjusted, 0.02% BSA, 0.2% acetic acid
Summary of the method: as §1

[15] = system: Proteus mirabilis clinical strains; type: cell-based; parameters: Minimum inhibitory concentration: unit: μg/ml; settings: for Minimum inhibitory concentration: microdilution, Muller Hinton broth-cation adjusted, 0.02% BSA, 0.2% acetic acid
Summary of the method: as §1

With `CC(C)C[C@@H](NC(=O)[C@H](N)CCCNC(=N)N)C(=O)N[C@H](CCCCN)C(=O)N[C@H](Cc1c[nH]c2ccccc12)C(=O)N[C@H](Cc1ccccc1)C(=O)N[C@H](CC(C)C)C(=O)N[C@H](CC(C)C)C(=O)N[C@H](Cc1ccccc1)C(=O)N[C@H](CCCNC(=N)N)C(=O)N[C@H](CCCCN)C(=O)N[C@H](CCCNC(=N)N)C(=O)O` [Chain308D] (H-[dR][dL][dK][dW][dF][dL][dL][dF][dR][dK][dR]-OH) the Minimum inhibitory concentration [1] was 4, the Minimum inhibitory concentration ([2]; Candida albicans clinical yeast strain 1) was 16 and the Minimum inhibitory concentration ([2]; Candida albicans clinical yeast strain 2) was 16. It also gave a Minimum inhibitory concentration ([2]; Candida albicans clinical yeast strain 3) of 16, a Minimum inhibitory concentration ([2]; Candida albicans clinical yeast strain 4) of 16 and a Minimum inhibitory concentration ([2]; Candida albicans clinical yeast strain 5) of 16. The Minimum inhibitory concentration ([3]; C. parapsilosis clinical yeast strain 1) was 8, the Minimum inhibitory concentration ([3]; C. parapsilosis clinical yeast strain 2) was 8 and the Minimum inhibitory concentration ([3]; C. parapsilosis clinical yeast strain 3) was 8. The Minimum inhibitory concentration ([3]; C. parapsilosis clinical yeast strain 4) was 4, the Minimum inhibitory concentration ([4]; C. glabrata clinical yeast strain 1) was 16 and the Minimum inhibitory concentration ([4]; C. glabrata clinical yeast strain 2) was 16. For the same molecule, the Minimum inhibitory concentration ([4]; C. glabrata clinical yeast strain 3) was 16, the Minimum inhibitory concentration ([4]; C. glabrata clinical yeast strain 4) was 16 and the Minimum inhibitory concentration ([5]; Escherichia coli clinical strain 1) was 1. It also gave a Minimum inhibitory concentration ([5]; Escherichia coli clinical strain 2) of 0.5, a Minimum inhibitory concentration ([5]; Escherichia coli clinical strain 3) of 1 and a Minimum inhibitory concentration ([5]; Escherichia coli clinical strain 4) of 1. For the same molecule, the Minimum inhibitory concentration ([5]; Escherichia coli clinical strain 5) was 1, the “MICs against all the bacteria and yeasts tested” value [6] was 0.5 to 32 µg/mL and the Minimum inhibitory concentration ([7]; Klebsiella pneumoniae clinical strain 1) was 4. The Minimum inhibitory concentration ([7]; Klebsiella pneumoniae clinical strain 2) was 4, the Minimum inhibitory concentration ([7]; Klebsiella pneumoniae clinical strain 3) was 4 and the Minimum inhibitory concentration ([7]; Klebsiella pneumoniae clinical strain 4) was 4. For the same molecule, the Minimum inhibitory concentration ([7]; Klebsiella pneumoniae clinical strain 5) was 4, the Minimum inhibitory concentration ([8]; Pseudomonas aeruginosa clinical strain 1) was 8 and the Minimum inhibitory concentration ([8]; Pseudomonas aeruginosa clinical strain 2) was 8. For the same molecule, the Minimum inhibitory concentration ([8]; Pseudomonas aeruginosa clinical strain 3) was 4, the Minimum inhibitory concentration ([8]; Pseudomonas aeruginosa clinical strain 4) was 4 and the Minimum inhibitory concentration ([8]; Pseudomonas aeruginosa clinical strain 5) was 4. The Minimum inhibitory concentration [9] was 4, the Minimum inhibitory concentration ([10]; Acinetobacter baumannii clinical strain 1) was 4 and the Minimum inhibitory concentration ([10]; Acinetobacter baumannii clinical strain 2) was 4. For the same molecule, the Minimum inhibitory concentration ([10]; Acinetobacter baumannii clinical strain 3) was 4, the Minimum inhibitory concentration ([10]; Acinetobacter baumannii clinical strain 4) was 2 and the Minimum inhibitory concentration ([10]; Acinetobacter baumannii clinical strain 5) was 2. The Minimum inhibitory concentration ([11]; Staphylococcus aureus clinical strain 1) was 1, the Minimum inhibitory concentration ([11]; Staphylococcus aureus clinical strain 2) was 2 and the Minimum inhibitory concentration ([11]; Staphylococcus aureus clinical strain 3) was 1. For the same molecule, the Minimum inhibitory concentration ([11]; Staphylococcus aureus clinical strain 4) was 2, the Minimum inhibitory concentration ([11]; Staphylococcus aureus clinical strain 5) was 2 and the Minimum inhibitory concentration ([12]; Enterobacter cloacae clinical strain 1) was 2. The Minimum inhibitory concentration ([12]; Enterobacter cloacae clinical strain 2) was 2, the Minimum inhibitory concentration ([12]; Enterobacter cloacae clinical strain 3) was 2 and the Minimum inhibitory concentration ([12]; Enterobacter cloacae clinical strain 4) was 2. It also gave a Minimum inhibitory concentration ([12]; Enterobacter cloacae clinical strain 5) of 2, a Minimum inhibitory concentration ([13]; Streptococcus pneumoniae clinical strain 1) of 8 and a Minimum inhibitory concentration ([13]; Streptococcus pneumoniae clinical strain 2) of 4. For the same molecule, the Minimum inhibitory concentration ([13]; Streptococcus pneumoniae clinical strain 3) was 8, the Minimum inhibitory concentration ([13]; Streptococcus pneumoniae clinical strain 4) was 2 and the Minimum inhibitory concentration ([13]; Streptococcus pneumoniae clinical strain 5) was 4. The Minimum inhibitory concentration ([14]; Serratia marcescens clinical strain 1) was 128, the Minimum inhibitory concentration ([14]; Serratia marcescens clinical strain 2) was 128 and the Minimum inhibitory concentration ([14]; Serratia marcescens clinical strain 3) was 64. For the same molecule, the Minimum inhibitory concentration ([14]; Serratia marcescens clinical strain 4) was over 128, the Minimum inhibitory concentration ([14]; Serratia marcescens clinical strain 5) was 128 and the “MICs against Serratia marcescens” value ([14]; clinical strains) was 64 to 128 µg/mL. It also gave a Minimum inhibitory concentration ([15]; Proteus mirabilis clinical strain 1) of over 128, a Minimum inhibitory concentration ([15]; Proteus mirabilis clinical strain 2) of 32 and a Minimum inhibitory concentration ([15]; Proteus mirabilis clinical strain 3) of 128. For the same molecule, the Minimum inhibitory concentration ([15]; Proteus mirabilis clinical strain 4) was over 128, the Minimum inhibitory concentration ([15]; Proteus mirabilis clinical strain 5) was over 128 and the “MICs against Proteus mirabilis” value ([15]; clinical strains) was 64 to 128 µg/mL.
